Assays:
[1] = tested on: PD-1/PD-L1 interaction; experiment: PD-1/PD-L1 NFAT Reporter Assay (co-culture of Jurkat T cells overexpressing PD-1 and PD-L1 expressing CHO cells); assay type: cell-based; conditions: co-culture 6 hrs at 37° C., NFAT-mediated luciferase activity
Experimental: Blocking the PD-1/PD-L1 interaction will release the inhibitory signal and results in TCR signaling and NFAT-mediated luciferase activity.
CHO cells expressing surface-bound anti-CD3 antibodies and PD-L1 were first seeded overnight and treated with the compounds. Jurkat cells overexpressing PD-1 and a luciferase construct under NFAT promoter were then immediately seeded on the monolayer of CHO cells. The co-culture was then incubated for 6 hrs at 37° C. Luciferase activity was assessed by adding the ONE-Glo reagent and measuring luminescence with a plate reader. EC50 values were determined from the fit of the dose-response curves.

[2] = molecular target: PD-1/PD-L1 PPI (Homo sapiens, UniProt Q9NZQ7); experiment: PDL1/PD1 Binding Assay; conditions: PDL1-6×His 0.3 nM, PD1-Fc-Avi-Biotin 2.5 nM, Acceptor/Donor beads, Envision reader
Experimental: Compounds to be tested were serially diluted in DMSO, and further diluted in assay buffer (25 mM Hepes pH 7.4, 150 mM NaCl, 0.005% Tween 20, BSA 0.01%). Diluted compounds were added to the wells with final concentration of DMSO at 1%. PDL1-6×His protein was added to the wells, mixed well with compound. The plates were incubated for 30 min at room temperature. PD1-Fc-Avi-Biotin protein was added to the wells. Final concentration of PDL1 and PD1 protein is 0.3 nM and 2.5 nM, respectively. After a binding time of 30 min at room temperature, Anti-6×His Acceptor beads (final concentration 20 ug/ml) were added to the wells, and the incubation continued for 1 h. Streptavidin Donor beads (final concentration 20 ug/mL) were added at reduced light. The plates were sealed with foil and incubated in the dark for additional 1 h or overnight before reading on an Envision reader. The IC50 values were determined by fitting the curves using a four-parameter equation in Graphpad Prism 8.

PD-1/PD-L1 PPI, sequence (Q9NZQ7 19-238 limits assumed): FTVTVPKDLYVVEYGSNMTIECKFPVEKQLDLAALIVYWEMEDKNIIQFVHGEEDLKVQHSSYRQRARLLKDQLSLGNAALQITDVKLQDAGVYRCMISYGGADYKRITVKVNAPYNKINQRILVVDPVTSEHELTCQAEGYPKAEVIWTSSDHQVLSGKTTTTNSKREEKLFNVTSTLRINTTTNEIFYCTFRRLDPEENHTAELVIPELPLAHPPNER

SMILES: COc1nc(-c2cccc(-c3cccc(NC(=O)c4nn(C)c(=O)n(C)c4=O)c3C)c2C)cc2c1[C@H](N[C@@H]1CCOC[C@H]1O)CC2 (single isomer, unassigned) [Compound A-92]
- EC50 ([1]; Homo sapiens, Jurkat, 6 h): 10 to 100 nM
- IC50 [2]: ≤ 10 nM

SMILES: COc1nc(-c2cccc(-c3cccc(NC(=O)c4nn(C)c(=O)n(C)c4=O)c3Cl)c2Cl)cc2c1[C@@H](N[C@@H]1CCOC[C@H]1O)CC2 (single isomer, unassigned) [Compound A-93]
- EC50 ([1]; Homo sapiens, Jurkat, 6 h): 100 to 1000 nM
- IC50 [2]: ≤ 10 nM

SMILES: COc1nc(-c2cccc(-c3cccc(NC(=O)c4nn(C)c(=O)n(C)c4=O)c3Cl)c2Cl)cc2c1[C@H](N[C@@H]1CCOC[C@H]1O)CC2 (single isomer, unassigned) [Compound A-94]
- EC50 ([1]; Homo sapiens, Jurkat, 6 h): ≤ 10 nM
- IC50 [2]: ≤ 10 nM

SMILES: COc1nc(-c2cccc(-c3cccc(NC(=O)c4nn(C)c(=O)n(C)c4=O)c3C)c2Cl)cc2c1[C@@H](N[C@@H]1CCOC[C@H]1O)CC2 (single isomer, unassigned) [Compound A-95]
- EC50 ([1]; Homo sapiens, Jurkat, 6 h): 100 to 1000 nM
- IC50 [2]: ≤ 10 nM

SMILES: COc1nc(-c2cccc(-c3cccc(NC(=O)c4cn(C)c(=O)n(C)c4=O)c3C)c2C)cc2c1[C@@H](N[C@@H]1COC[C@H]1O)CC2 (single isomer, unassigned) [Compound A-97]
- EC50 ([1]; Homo sapiens, Jurkat, 6 h): 1000 to 10000 nM
- IC50 [2]: 10 to 100 nM

SMILES: COc1nc(-c2cccc(-c3cccc(NC(=O)c4cn(C)c(=O)n(C)c4=O)c3C)c2C)cc2c1[C@H](N[C@@H]1COC[C@H]1O)CC2 (single isomer, unassigned) [Compound A-98]
- EC50 ([1]; Homo sapiens, Jurkat, 6 h): 100 to 1000 nM
- IC50 [2]: ≤ 10 nM

SMILES: COc1nc(-c2cccc(-c3cccc(NC(=O)c4nn(C)c(=O)n(C)c4=O)c3Cl)c2Cl)cc2c1[C@@H](N[C@@H]1COC[C@H]1O)CC2 (single isomer, unassigned) [Compound A-99]
- EC50 ([1]; Homo sapiens, Jurkat, 6 h): 100 to 1000 nM
- IC50 [2]: ≤ 10 nM

SMILES: COc1nc(-c2cccc(-c3cccc(NC(=O)c4nn(C)c(=O)n(C)c4=O)c3Cl)c2Cl)cc2c1[C@H](N[C@@H]1COC[C@H]1O)CC2 (single isomer, unassigned) [Compound A-100]
- EC50 ([1]; Homo sapiens, Jurkat, 6 h): ≤ 10 nM
- IC50 [2]: ≤ 10 nM

SMILES: COc1nc(-c2cccc(-c3cccc(NC(=O)c4nn(C)c(=O)n(C)c4=O)c3C)c2Cl)cc2c1[C@@H](N[C@@H]1COC[C@H]1O)CC2 (single isomer, unassigned) [Compound A-101]
- EC50 ([1]; Homo sapiens, Jurkat, 6 h): > 5000 nM
- IC50 [2]: ≤ 10 nM

SMILES: COc1nc(-c2cccc(-c3cccc(NC(=O)c4nn(C)c(=O)n(C)c4=O)c3C)c2Cl)cc2c1[C@H](N[C@@H]1COC[C@H]1O)CC2 (single isomer, unassigned) [Compound A-102]
- EC50 ([1]; Homo sapiens, Jurkat, 6 h): ≤ 10 nM
- IC50 [2]: ≤ 10 nM

SMILES: COc1nc(-c2cccc(-c3cccc(NC(=O)c4nn(C)c(=O)n(C)c4=O)c3C)c2C)cc2c1[C@@H](N[C@@H]1COC[C@H]1O)CC2 (single isomer, unassigned) [Compound A-103]
- EC50 ([1]; Homo sapiens, Jurkat, 6 h): > 5000 nM
- IC50 [2]: 10 to 100 nM

SMILES: COc1nc(-c2cccc(-c3cccc(NC(=O)c4nn(C)c(=O)n(C)c4=O)c3C)c2C)cc2c1[C@H](N[C@@H]1COC[C@H]1O)CC2 (single isomer, unassigned) [Compound A-104]
- EC50 ([1]; Homo sapiens, Jurkat, 6 h): 10 to 100 nM
- IC50 [2]: ≤ 10 nM

SMILES: COc1nc(-c2cccc(-c3cccc(NC(=O)c4cn(C)c(=O)n(C)c4=O)c3C)c2C)cc2c1[C@@H](N[C@@H]1COC[C@@H]1O)CC2 (single isomer, unassigned) [Compound A-105]
- EC50 ([1]; Homo sapiens, Jurkat, 6 h): 10 to 100 nM
- IC50 [2]: 10 to 100 nM

SMILES: COc1nc(-c2cccc(-c3cccc(NC(=O)c4cn(C)c(=O)n(C)c4=O)c3C)c2C)cc2c1[C@H](N[C@@H]1COC[C@@H]1O)CC2 (single isomer, unassigned) [Compound A-106]
- EC50 ([1]; Homo sapiens, Jurkat, 6 h): 100 to 1000 nM
- IC50 [2]: ≤ 10 nM

SMILES: COc1nc(-c2cccc(-c3cccc(NC(=O)c4nn(C)c(=O)n(C)c4=O)c3Cl)c2Cl)cc2c1[C@@H](N[C@@H]1COC[C@@H]1O)CC2 (single isomer, unassigned) [Compound A-107]
- EC50 ([1]; Homo sapiens, Jurkat, 6 h): ≤ 10 nM
- IC50 [2]: ≤ 10 nM

SMILES: COc1nc(-c2cccc(-c3cccc(NC(=O)c4nn(C)c(=O)n(C)c4=O)c3Cl)c2Cl)cc2c1[C@H](N[C@@H]1COC[C@@H]1O)CC2 (single isomer, unassigned) [Compound A-108]
- EC50 ([1]; Homo sapiens, Jurkat, 6 h): 100 to 1000 nM
- IC50 [2]: ≤ 10 nM

SMILES: COc1nc(-c2cccc(-c3cccc(NC(=O)c4nn(C)c(=O)n(C)c4=O)c3C)c2Cl)cc2c1[C@@H](N[C@@H]1COC[C@@H]1O)CC2 (single isomer, unassigned) [Compound A-109]
- EC50 ([1]; Homo sapiens, Jurkat, 6 h): ≤ 10 nM
- IC50 [2]: ≤ 10 nM

SMILES: COc1nc(-c2cccc(-c3cccc(NC(=O)c4nn(C)c(=O)n(C)c4=O)c3C)c2Cl)cc2c1[C@H](N[C@@H]1COC[C@@H]1O)CC2 (single isomer, unassigned) [Compound A-110]
- EC50 ([1]; Homo sapiens, Jurkat, 6 h): 100 to 1000 nM
- IC50 [2]: ≤ 10 nM

SMILES: COc1nc(-c2cccc(-c3cccc(NC(=O)c4nn(C)c(=O)n(C)c4=O)c3C)c2C)cc2c1[C@@H](N[C@@H]1COC[C@@H]1O)CC2 (single isomer, unassigned) [Compound A-111]
- EC50 ([1]; Homo sapiens, Jurkat, 6 h): 10 to 100 nM
- IC50 [2]: ≤ 10 nM

SMILES: COc1nc(-c2cccc(-c3cccc(NC(=O)c4nn(C)c(=O)n(C)c4=O)c3C)c2C)cc2c1[C@H](N[C@@H]1COC[C@@H]1O)CC2 (single isomer, unassigned) [Compound A-112]
- EC50 ([1]; Homo sapiens, Jurkat, 6 h): 1000 to 10000 nM
- IC50 [2]: ≤ 10 nM

SMILES: COc1nc(-c2cccc(-c3cccc(NC(=O)c4cn(C)c(=O)n(C)c4=O)c3C)c2Cl)cc2c1[C@@H](NC[C@H]1CCC(=O)N1)CC2 (single isomer, unassigned) [Compound A-113]
- EC50 ([1]; Homo sapiens, Jurkat, 6 h): 1000 to 10000 nM
- IC50 [2]: 10 to 100 nM

SMILES: COc1nc(-c2cccc(-c3cccc(NC(=O)c4cn(C)c(=O)n(C)c4=O)c3C)c2Cl)cc2c1[C@H](NC[C@H]1CCC(=O)N1)CC2 (single isomer, unassigned) [Compound A-114]
- EC50 ([1]; Homo sapiens, Jurkat, 6 h): ≤ 10 nM
- IC50 [2]: ≤ 10 nM

SMILES: COCCOc1nc(-c2cccc(-c3cccc(NC(=O)c4cn(C)c(=O)n(C)c4=O)c3C)c2Cl)cc2c1[C@@H](NC[C@@H]1CCC(=O)N1)CC2 (single isomer, unassigned) [Compound A-115]
- EC50 ([1]; Homo sapiens, Jurkat, 6 h): 10 to 100 nM
- IC50 [2]: ≤ 10 nM

SMILES: COCCOc1nc(-c2cccc(-c3cccc(NC(=O)c4cn(C)c(=O)n(C)c4=O)c3C)c2Cl)cc2c1[C@H](NC[C@@H]1CCC(=O)N1)CC2 (single isomer, unassigned) [Compound A-116]
- EC50 ([1]; Homo sapiens, Jurkat, 6 h): 1000 to 10000 nM
- IC50 [2]: ≤ 10 nM

SMILES: COc1nc(-c2cccc(-c3cccc(NC(=O)c4cn(C)c(=O)n(C)c4=O)c3C)c2Cl)cc2c1C(NC[C@@H]1CCC(=O)N1)C(O)C2 (single isomer, unassigned) [Compound A-125]
- EC50 [1]: > 5000 nM
- IC50 [2]: ≤ 10 nM

SMILES: COc1nc(-c2cccc(-c3cccc(NC(=O)c4cn(C)c(=O)n(C)c4=O)c3C)c2Cl)cc2c1C(NC[C@@H]1CCC(=O)N1)C(O)C2 (single isomer, unassigned) [Compound A-126]
- EC50 [1]: 10 to 100 nM
- IC50 [2]: ≤ 10 nM

SMILES: COc1nc(-c2cccc(-c3cccc(NC(=O)c4cn(C)c(=O)n(C)c4=O)c3C)c2Cl)cc2c1C(NC[C@@H]1CCC(=O)N1)C(O)C2 (single isomer, unassigned) [Compound A-127]
- EC50 [1]: 100 to 1000 nM
- IC50 [2]: ≤ 10 nM

SMILES: COc1nc(-c2cccc(-c3cccc(NC(=O)c4cn(C)c(=O)n(C)c4=O)c3C)c2Cl)cc2c1C(NC[C@@H]1CCC(=O)N1)C(O)C2 (single isomer, unassigned) [Compound A-128]
- EC50 [1]: 100 to 1000 nM
- IC50 [2]: ≤ 10 nM

SMILES: COc1nc(-c2cccc(-c3cccc(NC(=O)c4cn(C)c(=O)n(C)c4=O)c3Cl)c2Cl)cc2c1[C@@H](N1CC3(CNC(=O)C3)C1)CC2 (single isomer, unassigned) [Compound A-129]
- EC50 ([1]; Homo sapiens, Jurkat, 6 h): ≤ 10 nM
- IC50 [2]: ≤ 10 nM

SMILES: COc1nc(-c2cccc(-c3cccc(NC(=O)c4cn(C)c(=O)n(C)c4=O)c3Cl)c2Cl)cc2c1C(N1CC3(CNC(=O)C3)C1)CC2 (single isomer, unassigned) [Compound A-130]
- EC50 ([1]; Homo sapiens, Jurkat, 6 h): 10 to 100 nM
- IC50 [2]: ≤ 10 nM

SMILES: COc1nc(-c2cccc(-c3cccc(NC(=O)c4cn(C)c(=O)n(C)c4=O)c3C)c2Cl)cc2c1[C@@H](N1CC3(CNC(=O)C3)C1)CC2 (single isomer, unassigned) [Compound A-131]
- EC50 [1]: ≤ 10 nM
- IC50 [2]: ≤ 10 nM

From patent US12534450B2, “Methods and compositions for targeting PD-L1” (Aligos Therapeutics, Inc., priority 2021, dated 2026)
